Data set [1] is described as follows: Cytotoxicity against African green monkey Vero cells incubated for 24 hrs by neutral red uptake assay. In kind it is toxicity, cell-based. The note with it: chlorocebus sabaeus; for MNTC at 24 h: read-out: MTD.
In data set [2] the test system is Mus musculus. Nature of the data set: Inhibition of Shigella dysenteriae Shiga toxin-induced mortality in Balb/c mouse exposed to 5 x LD50 Shigella toxin assessed as increase in mouse survival at 2 mM, ip dosed 1 hr before toxin injection measured after 24 to 48 hrs. In kind it is functional, organism-based.
Data set [3] deals with Mus musculus. Nature of the data set: Inhibition of Shigella dysenteriae Shiga toxin-induced mortality in Balb/c mouse exposed to 5 x LD50 Shigella toxin assessed as reduction in symptomatic effects of toxin at 2 mM, ip preincubated with Stx for 1 hr measured after 0 to 14 days. The format is functional, organism-based.
For data set [4], the system named is Mus musculus. Nature of the data set: Toxicity in Balb/c mouse at 2 mM, ip measured after 0 to 14 days. In kind it is organism-based. The note with it: in vivo, 2000 µM.
Data set [5] deals with Mus musculus. Put plainly: Inhibition of Shigella dysenteriae Shiga toxin-induced mortality in Balb/c mouse exposed to 5 x LD50 Shigella toxin assessed as increase in mouse survival at 2 mM, ip dosed 1 after toxin injection measured after 24 to 48 hrs. In kind it is functional, organism-based.
Data set [6] deals with Mus musculus. Put plainly: Inhibition of Shigella dysenteriae Shiga toxin-induced mortality in Balb/c mouse exposed to 5 x LD50 Shigella toxin assessed as increase in mouse survival at 2 mM, ip preincubated with Stx for 1 hr measured after 0 to 14 days. The format is functional, organism-based.
The target of data set [7] is T1, Shiga toxin subunit A (Shigella dysenteriae) (UniProt Q9FBI2).
T1 sequence (whole entry): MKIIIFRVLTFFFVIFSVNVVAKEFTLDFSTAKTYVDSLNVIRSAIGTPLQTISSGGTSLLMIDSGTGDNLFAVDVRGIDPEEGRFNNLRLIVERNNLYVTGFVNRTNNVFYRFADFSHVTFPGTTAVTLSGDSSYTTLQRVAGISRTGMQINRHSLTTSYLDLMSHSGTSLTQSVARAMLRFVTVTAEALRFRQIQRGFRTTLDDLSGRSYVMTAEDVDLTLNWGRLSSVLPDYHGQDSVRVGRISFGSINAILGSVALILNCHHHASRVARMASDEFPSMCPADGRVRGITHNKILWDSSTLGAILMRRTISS

Data set [8] in a line: Inhibition of Shigella dysenteriae type 2 Shiga toxin in African green monkey Vero cells assessed as inhibition of Stx-induced cytotoxicity incubated for 10 hrs by MTS/PMS assay. In kind it is cell-based.

The results in this text go back to ChEMBL document CHEMBL3862035, “In Silico Discovery and Validation of Amide Based Small Molecule Targeting the Enzymatic Site of Shiga Toxin” (J Med Chem, 2016).

The source made the active and inactive calls. The rule behind the calls is not given here.

For the compound `O=C(/C=C/c1ccccc1)Oc1c(-c2ccccc2)oc2ccccc2c1=O`, the MNTC at 24 h in data set [1] stood at 64 µM.

Regarding `O=C(/C=C/c1cccs1)c1ccccc1O`, the MNTC at 24 h in data set [1] is 17 µM.

As to `Nc1nc(N)c2[nH]cnc2n1` [2,6-DIAMINOPURINE], in data set [1], the MNTC at 24 h stood at 9.3 µM.

For the compound `Nc1ncnc2c1ncn2[C@@H]1O[C@H](COP(=O)(O)O)[C@@H](O)[C@H]1O` [ADENOSINE PHOSPHATE], in data set [1], the MNTC at 24 h stood at 75 µM.

As to `CCCSCCNCCNC(=O)/C=C/c1ccccc1`, the inhibition result in data set [2], in data set [3], in data set [5] and in data set [6] was “Active” in each case. This compound had a CC50 at 24 h in data set [1] of 123 µM. The MNTC at 24 h in data set [1] came out at 38 µM. In addition, the Activity result in data set [4] was “Non-Toxic”.

As to `Nc1nc2nc[nH]c2c(=O)[nH]1` [GUANINE], in data set [1], the CC50 at 24 h turned out to be 136 µM and the MNTC at 24 h was 125 µM. For the same compound, the Activity result in data set [4] is recorded as “Non-Toxic”.

Consider `Nc1ncnc2c1ncn2[C@@H]1O[C@H](CO)[C@@H](O)[C@H]1O` [ADENOSINE], for which the MNTC at 24 h in data set [1] came out at 125 µM.

Consider `Nc1nc2[nH]cnc2c(=O)[nH]1`, for which, in data set [7], the ΔTm worked out at 4.45 °C.

For `O=c1cc(-c2ccccc2F)[nH]c2ccccc12`, in data set [1], the MNTC at 24 h is 5 µM.

As for `CC(=O)c1ccccc1NC(=O)c1ccc([N+](=O)[O-])cc1`, the MNTC at 24 h in data set [1] was determined as 17.3 µM.

Turning to `S=C1N=CN=C2NC=NC12` (centres undefined), the MNTC at 24 h in data set [1] was found to be 18.7 µM.

For the compound `CCCCSCCNCCNP(=S)(OCC)OCC`, the IC50 in data set [8] stood at 25 µM. The MNTC at 24 h in data set [1] came out at 32.3 µM.

As for `Cc1ncnc2nc[nH]c12`, the MNTC at 24 h in data set [1] was 9.3 µM.

In the case of `Nc1ncnc2nn[nH]c12`, the MNTC at 24 h in data set [1] came out at 18.7 µM.

As to `Oc1ncnc2[nH]ncc12` [ALLOPURINOL], in data set [1], it took 428 µM to reach half-maximal cytotoxicity (CC50 at 24 h) and the MNTC at 24 h was determined as 250 µM. Besides, in data set [4], the Activity entry is reported as “Non-Toxic”. Besides, the ΔTm in data set [7] was determined as 3.75 °C.

For the compound `O=C(NCCNCCSc1ccccc1)C1CCCCC1`, the MNTC at 24 h in data set [1] was 38 µM.

Regarding `COc1ccc(/C=C/C(=O)c2ccccc2O)cc1`, the MNTC at 24 h in data set [1] came out at 7.35 µM.

In the case of `O=C(NCCNCCSc1ccccc1)c1ccc([N+](=O)[O-])cc1`, the inhibition entry in data set [2], in data set [3], in data set [5] and in data set [6] was “Active” in each case. The compound further showed a CC50 at 24 h in data set [1] of 177 µM. In data set [1], the MNTC at 24 h stood at 15 µM. Besides, the Activity result in data set [4] is “Non-Toxic”.

Turning to `O=C(/C=C/c1ccccc1F)c1ccccc1O`, the MNTC at 24 h in data set [1] is 5.67 µM.

Take `Oc1cc(/C=C/c2ccccc2)nc2ccccc12`: the MNTC at 24 h in data set [1] was determined as 9.33 µM.

`CCCSCCNCCNC(=O)c1ccc(Cl)cc1`: in data set [1], the MNTC at 24 h came to 124 µM.

On to `CC(=O)c1ccccc1NC(=O)c1ccccc1F`, for which the inhibition result in data set [2], in data set [3], in data set [5] and in data set [6] was “Active” throughout. In data set [1], this compound gave a half-maximal cytotoxic concentration (CC50) at 24 h of 120 µM. In addition, in data set [1], the MNTC at 24 h came to 37 µM. Further, in data set [4], the Activity result is “Non-Toxic”.

For `Cc1ccsc1-c1cc(=O)c2ccccc2[nH]1`, the MNTC at 24 h in data set [1] is 5.33 µM.

Turning to `c1ccc(SCCNCCN2CCCC2)cc1`, the IC50 in data set [8] worked out at 25 µM. Besides, the MNTC at 24 h in data set [1] stood at 63.3 µM.

For `O=C(/C=C/c1ccccc1)Nc1ccccc1O` [N-(2-HYDROXYPHENYL)CINNAMAMIDE], in data set [1], the MNTC at 24 h amounted to 32 µM.

`O=C1NCN=C2NC=NC12` (centres undefined): the MNTC at 24 h in data set [1] was determined as 125 µM. Also, the shift in melting temperature (ΔTm) in data set [7] was found to be 2.32 °C.

Take `CC(=O)c1ccccc1NC(=O)/C=C\c1ccccc1`: the inhibition result in data set [2], in data set [3], in data set [5] and in data set [6] was “Active” each time. Besides, the midpoint of cytotoxicity in data set [1], the CC50 at 24 h, lay at 29.7 µM. For the same compound, the MNTC at 24 h in data set [1] stood at 6.96 µM. Further, the Activity entry in data set [4] is “Non-Toxic”.

On to `CC(=O)c1ccccc1NC(=O)c1ccc(F)cc1`, for which the MNTC at 24 h in data set [1] was found to be 10 µM.

As to `O=C1NC(=O)C2N=CNC2N1` (centres undefined), in data set [1], the MNTC at 24 h was 9.3 µM.

Regarding `Nc1ccncn1`, the MNTC at 24 h in data set [1] is 250 µM.

As to `Nc1ncc2[nH]cnc2n1` [2-AMINOPURINE], the MNTC at 24 h in data set [1] came out at 125 µM.

For the compound `O=C(/C=C\c1ccccc1)NCCO`, in data set [1], the MNTC at 24 h came to 31.6 µM.
